How the values were obtained:
[1] = system: HIV-1IIIB infected MT-4 cells; assay: Anti-HIV activity: protection of HIV-1IIIB infected MT-4 cells, MTT method; assay type: cell-based; conditions: MOI 0.01, culture for 5 days, concentration inhibiting 50% of cytotoxicity due to HIV infection
Protocol: HIV-1IIIB infected MT-4 cells were added to 96-well microtiter plates (3.0×10^4/well, MOI (Multiplicity of infection): 0.01), together with test compounds at different concentrations immediately after the infection. After culture for 5 days in a carbon dioxide incubator at 37° C., the number of surviving cells was counted by MTT (tetrazolium) method (Pawels et al., J. Virol. Methods, 20, 309-321, 1988).

ICR male mice = assay: Acute toxicity in ICR mice, intraperitoneal administration; assay type: in vivo; conditions: 3 per group, 50 mg/kg intraperitoneally, twice a day, for four days, number of dead animals after 5 days
Protocol: Acute toxicity of the antiviral drug was examined. Three groups of 7 week-old, ICR male mice, each group consisting of 3 mice, were bred for one week. The compounds prepared in the Examples, dissolved in a physiological saline solution or distilled water, were intraperitoneally administered at a dose of 50 mg/kg, twice a day, for four days. After 5 days, the number of dead animals was examined.

Compound | EC50 [1] [µM] | Dead mouse (ICR male mice)
Cn1cccc1CNCCC[C@H](NC(=O)c1ccc(CNCc2ccccn2)cc1)C(=O)NCc1cccc2ccccc12 [Compound No. 5, (S)-2-(4-(N-2-picolylaminomethyl)benzoylamino)-5-((1-methylpyrrol-2-ylmethyl)amino)valeric acid 1-naphthalenemethylamide] | 0.804 | –
O=C(N[C@@H](CCCNC1CCCc2cccnc21)C(=O)NCc1cccc2ccccc12)c1ccc(CNCc2ncc[nH]2)s1 (stereo partly drawn) [Compound No. 16, (2S)-2-(5-(N-(imidazol-2-ylmethyl)aminomethyl)thiophene-2-carbonylamino)-5-(5,6,7,8-tetrahydroquinolin-8-yl)aminovaleric acid 1-naphthalenemethylamide] | 0.633 | –
O=C(N[C@@H](CCCNCc1ncc[nH]1)C(=O)NCc1cccc2ccccc12)c1ccc(CNCc2ncc[nH]2)cc1 [Compound No. 21, (S)-2-(4-((imidazol-2-ylmethyl)aminomethyl)benzoylamino)-5-((imidazol-2-ylmethyl)amino)valeric acid 1-naphthalenemethylamide] | 0.828 | –
Cn1cccc1CNCCC[C@H](NC(=O)c1ccc(CNCc2nccn2C)cc1)C(=O)NCc1cccc2ccccc12 [Compound No. 30, (S)-2-(4-((1-methylimidazol-2-ylmethyl)aminomethyl)benzoylamino)-5-((1-methylpyrrol-2-ylmethyl)amino)valeric acid 1-naphthalenemethylamide] | 0.662 | –
O=C(N[C@@H](CCCNC1CCCc2cccnc21)C(=O)NCc1cccc2ccccc12)c1ccc(CNCc2ncc[nH]2)cc1 (stereo partly drawn) [Compound No. 39, (2S)-2-(4-((N-imidazol-2-ylmethyl)aminomethyl)benzoylamino)-5-(5,6,7,8-tetrahydroquinolin-8-ylamino)valeric acid 1-naphthalenemethylamide] | – | 0/3
O=C(N[C@@H](CCCNC1CCCc2cccnc21)C(=O)NCc1cccc2ccccc12)c1ccc(CNCc2ncc[nH]2)c2ccccc12 (stereo partly drawn) [Compound No. 41, (2S)-2-(4-((N-imidazol-2-ylmethyl)aminomethyl)naphthoylamino)-5-(5,6,7,8-tetrahydroquinolin-8-ylamino)valeric acid 1-naphthalenemethylamide] | 0.035 | 0/3
NC(N)=NCCC[C@H](NC(=O)c1ccc(CNCc2ccccn2)cc1)C(=O)NCc1cccc2ccccc12 [Compound No. 43, N^α-(4-(N-2-picolylaminomethyl)benzoyl)-L-arginine 1-naphthalenemethylamide] | 0.118 | –
N=C(N)NCCC[C@H](NC(=O)c1ccc(CNCc2ccccn2)c2ccccc12)C(=O)NCc1cccc2ccccc12 [Compound No. 44, N^α-(4-(N-2-picolylaminomethyl)naphthoyl)-L-arginine 1-naphthalenemethylamide] | 0.126 | –
C[C@H](NC(=O)[C@H](CCCNC(=N)N)NC(=O)c1ccc(CNCc2ncc[nH]2)c2ccccc12)c1cccc2ccccc12 [Compound No. 49, N^α-(4-(imidazol-2-ylmethyl)aminomethylnaphthoyl)-L-arginine(1′S)-(1′-(1-naphthyl)ethyl)amide] | 0.086 | 0/3
N=C(N)NCCC[C@H](NC(=O)c1ccc(CNCc2ncc[nH]2)cc1)C(=O)NCc1cccc2ccccc12 [Compound No. 53, N^α-(4-(imidazol-2-ylmethyl)aminomethylbenzoyl)-L-arginine 1-naphthalenemethylamide] | 0.15 | –
C[C@H](NC(=O)[C@H](CCCNC1CCCc2cccnc21)NC(=O)c1ccc(CNCc2ncc[nH]2)c2ccccc12)c1cccc2ccccc12 (stereo partly shown) [Compound No. 57] | 0.082 | 0/3
O=C(N[C@@H](CCCNCc1ccccn1)C(=O)NCc1cccc2ccccc12)c1ccc(CNCc2ccccn2)cc1 [Compound No. 60, (S)-2-(4-(N-2-picolylaminomethyl)benzoylamino)-5-(N-2-picolylamino)valeric acid 1-naphthalenemethylamide] | 0.158 | –
O=C(N[C@@H](CCNCc1ccccn1)C(=O)NCc1cccc2ccccc12)c1ccc(CNCc2ccccn2)cc1 [Compound No. 61, (S)-2-(4-(N-2-picolylamino)methylbenzoylamino)-4-(N-2-picolylamino)butyric acid 1-naphthalenemethylamide] | 2.62 | –
O=C(N[C@@H](CCCNC1CCCc2cccnc21)C(=O)NCc1cccc2ccccc12)c1ccc(CNC2CCCc3cccnc32)cc1 (stereo partly drawn) [Compound No. 64, (2S)-2-(4-((5,6,7,8-tetrahydroquinolin-8-yl)aminomethyl)benzoylamino)-5-((5,6,7,8-tetrahydroquinolin-8-yl)amino)valeric acid 1-naphthalenemethylamide] | 0.114 | –
O=C(N[C@@H](CCCNC1CCCc2cccnc21)C(=O)NCc1cccc2ccccc12)c1ccc(CNCc2ccccn2)cc1 (stereo partly drawn) [Compound No. 65, (2S)-2-(4-(N-2-picolylaminomethyl)benzoylamino)-5-((5,6,7,8-tetrahydroquinolin-8-yl)amino)valeric acid 1-naphthalenemethylamide] | 0.093 | 0/3
C[C@H](NC(=O)[C@H](CCCNC1CCCc2cccnc21)NC(=O)c1ccc(CNCc2ccccn2)nc1)c1cccc2ccccc12 (stereo partly drawn) [Compound No. 83, (2S)-2-(2-(N-2-picolylaminomethyl)pyridin-5-ylcarbonyl)amino-5-(5,6,7,8-tetrahydroquinolin-8-yl)aminovaleric acid (1′S)-1′-(1-naphthyl)ethylamide] | 0.121 | –
C[C@H](NC(=O)[C@H](CCCNC1CCCc2cccnc21)NC(=O)c1ccc(CNCc2ccccn2)c2ccccc12)c1cccc2ccccc12 (stereo partly drawn) [Compound No. 85, (2S)-2-(4-(N-2-picolylaminomethyl)naphthoyl)amino-5-(5,6,7,8-tetrahydroquinolin-8-yl)aminovaleric acid (1′S)-1′-(1-naphthyl)ethylamide] | 0.029 | –
C[C@H](NC(=O)[C@H](CCCNC1CCCc2cccnc21)NC(=O)c1ccc(CNCc2ccccn2)cc1)c1cccc2ccccc12 (stereo partly drawn) [Compound No. 91, (2S)-2-(4-(N-2-picolylaminomethyl)benzoyl)amino-5-(5,6,7,8-tetrahydroquinolin-8-yl)aminovaleric acid (1′S)-1′-(1-naphthyl)ethylamide] | 0.138 | –
O=C(N[C@@H](CCCNC1CCCc2cccnc21)C(=O)NCCc1c[nH]c2ccccc12)c1ccc(CNCc2ccccn2)c2ccccc12 (stereo partly drawn) [Compound No. 92, (2S)-2-(4-(N-2-picolylaminomethyl)naphthoyl)amino-5-(5,6,7,8-tetrahydroquinolin-8-yl)aminovaleric acid 2-(3-indolyl)ethylamide] | – | 0/3
C[C@H](NC(=O)[C@H](CCCNC(=N)N)NC(=O)c1ccc(CNCc2ncc[nH]2)cc1)c1cccc2ccccc12 [Compound No. 95, N^α-4-(N-2-(imidazol-2-ylmethyl)aminomethyl)benzoyl-L-arginine (1′S)-1′-(1-naphthyl)ethylamide] | 0.175 | –
Cn1ccnc1CNCc1ccc(C(=O)N[C@@H](CCCNC2CCCc3cccnc32)C(=O)NCc2cccc3ccccc23)cc1 (stereo partly drawn) [Compound No. 96, (2S)-2-((1-methylimidazol-2-ylmethyl)aminomethyl)benzoylamino-5-(5,6,7,8-tetrahydroquinolyl-8-yl)aminovaleric acid 1-naphthalenemethyleneamide] | 0.034 | 0/3
C[C@H](NC(=O)[C@H](CCCNC(=N)N)NC(=O)c1ccc(CNCc2nccn2C)c2ccccc12)c1cccc2ccccc12 [Compound No. 97, N^α-(4-((N-(1-methylimidazole-2-ylmethyl)amino)methyl)naphthalene-1-carbonyl)-L-arginine (1′S)-1′-(1-naphthyl)ethylamide] | – | 0/3
C[C@H](NC(=O)[C@H](CCCNC(=N)N)NC(=O)c1ccc(CNCc2ccccn2)c2ccccc12)c1cccc2ccccc12 [Compound No. 99, N^α-(4-(N-2-picolylaminomethyl)naphthoyl)-L-arginine (1′S)-1′-(1-naphthyl)ethylamide] | – | 0/3
C[C@H](NC(=O)[C@H](CCCNC1CCCc2cccnc21)NC(=O)c1ccc(CNCc2ncc[nH]2)cc1)c1cccc2ccccc12 (stereo partly shown) [Compound No. 106] | 0.025 | 0/3
C[C@H](NC(=O)[C@H](CCCNC1CCCc2cccnc21)NC(=O)c1ccc(CNCc2nccn2C)cc1)c1cccc2ccccc12 (stereo partly shown) [Compound No. 107] | 0.035 | 0/3
C[C@H](NC(=O)[C@H](CCCNC1=NCCN1)NC(=O)c1ccc(CNCc2ncc[nH]2)cc1)c1cccc2ccccc12 [Compound No. 110, (S)-2-(4-((N-imidazol-2-ylmethyl)aminomethyl)benzoyl)amino-5-(4,5-dihydroimidazol-2-yl)aminovaleric acid (1′S)-1′-(1-naphthyl)ethylamide] | 0.344 | –
C[C@H](NC(=O)[C@H](CCCNC1=NCCCN1)NC(=O)c1ccc(CNCc2ncc[nH]2)cc1)c1cccc2ccccc12 [Compound No. 112, (S)-2-(4-((N-imidazol-2-ylmethyl)aminomethyl)benzoyl)amino-5-(3,4,5,6-tetrahydropyrimidine-2-yl)aminovaleric acid (1′S)-1′-(1-naphthyl)ethylamide] | 0.88 | –

— US7098215B2, “Nitrogenous compounds and antiviral drugs containing the same” (Kureha Chemical Industry Co., Ltd., priority 2000, dated 2006)
